Reference: patent publication US11246961B2, “Engineered scaffolds for vascularized tissue repair” (The Regents of the University of California, priority 2016, dated 2022)
Entries after “also recorded” stand apart in the source; their conditions may differ.

How the values were obtained:
HMVECs = experiment: flow cytometry ligand-cell binding, HMVECs; design: species or system human; settings: biotinylated ligand 1 μM, streptavidin-phycoerythrin
Description: (§1) FIG. 10 presents flow cytometry data from an assay of binding affinity of LXW7 and GRGD (SEQ ID NO: 1) to different cell types. Tests included EPCs/ECs from different sources, including HECFCs (A), HCAECs (B), HMVECs (C), and THP-1 monocytes (D), Platelets (E), as well as K562 cells engineered to highly express αvβ3 (αvβ3-K562, F), and αIIbβ3 (αIIbβ3-K562, G). Cells were incubated with the LXW7-bio, GRGD-bio (SEQ ID NO: 1), or D-Biotin peptide and subsequently incubated with streptavidin-phycoerythrin. Flow cytometry analysis was performed to determine the binding affinity of the ligands. Samples treated with D-biotin were used as negative controls.
(§2) LXW7-bio (1 μM) was incubated with 3×10^5 HECFCs, HCAECs, HMVECs, αvβ3-K562 and αIIbβ3-K562 cells and THP-1 monocytes and 1×10^8 platelets in binding buffer (HEPES containing 10% FBS) on ice for 30 minutes. The samples were washed three times with DPBS containing 1% FBS and incubated with 2 μg/ml of streptavidin-phycoerythrin on ice for 30 minutes and then washed with DPBS. Samples were analyzed on a BD Fortessa LSR Cell Analyzer and further data analysis and gating were performed using FlowJo software (Treestar, Inc.).

HCAECs = experiment: on-bead whole cell binding assay, HCAECs; type: cell-based, human
From the text: Human coronary artery endothelial cells (HCAECs) were purchased from ATCC. Human cardiac microvascular endothelial cells (HMVECs) were purchased from Lonza. THP-1 monocytes were obtained from Dr. Pamela Lein (University of California, Davis). The myeloid leukemia K562 cells that have been transfected with human integrin αvβ3 gene (αvβ3-K562 cells) were provided by Dr. Yoshikazu Takada and the K562 cells transfected with human integrin αIIbβ3 gene (αIIb3-K562 cells) were provided Dr. Jennifer Cochran (Stanford University)
HECFCs, HCAECs, HMVECs and THP-1 monocytes were cultured in their respective growth medium as described in Example 1. For cell bead-binding assay, 6×10^5 HECFCs, HCAECs, HMVECs or THP-1 monocytes in 2 mL of their respective culture medium were added to an ultra-low attachment 35-mm petri dish (Corning Incorporated) followed by resin beads (Lam et al. (1991) Nature 354:82). The dishes were incubated in a shaking incubator at 37° C., 5% CO2 for various time points at 40 rpm. For platelet bead-binding assay, the platelets isolated as described in Example 1 were added to an ultra-low attachment 35-mm petri dish and incubated with the resin beads in the shaking incubator as described for the cell-bead binding assy. Phase contrast images were taken at different time points using an Olympus IX81 microscope.
Three integrin-targeting ligands—LXY30 (α3β1), LLP2A (α4β1) and LXW7 (αvβ3)—were tested for their binding activities to EPCs and ECs. […] LXY30 only bound to ECs, not to EPCs. LLP2A only bound to EPCs, not to ECs. LXW7 bound well to both EPCs and ECs.

platelets = platelets attachment assay on ligand treated culture surfaces; type: cell-based; settings: 16 hours
From the text: Ligands LXW7, LXY30, and LLP2A were synthesized as in U.S. Pat. No. 9,073,974. Biotinylated LXW7 (LXW7-bio) and biotinylated GRGD (GRGD-bio) (SEQ ID NO: 1) were synthesized using established solid phase peptide synthesis protocols (Xiao et al. (2010) Mol Cancer Therapeutics 9:2714). Peptide-bio was designed to have biotin attached to the side chain of Lys, with two hydrophilic linkers between peptide and Lys (biotin). To modify culture surface with ligands, target culture wells in a 24-well plate were coated with 500 μL of 20 μg/mL Avidin (Thermo Fisher Scientific), and incubated for 1 hour at 37° C. Avidin coated wells were rinsed three times with DPBS and were treated with 500 μL molar equivalents (2 μM) of D-biotin (Thermo Fisher Scientific), LXW7-bio, or GRGD-bio (SEQ ID NO: 1). After 1 hour, the wells were washed three times with DPBS and blocked with 1% bovine serum albumin (BSA; Thermo Fisher Scientific) for 1 hour. After the wells were rinsed three times with DPBS, for cell attachment assay, 5×10^4 HCAECs and THP-1 monocytes suspended in the respective maintenance medium were added to the wells and incubated for 10 minutes or 16 hours at 37° C., 5% CO2, respectively. […] Five images were randomly taken from each sample and quantification of images was performed using the Image J software (NIH).

integrin αvβ3 = biological target: T1, integrin αvβ3 (Homo sapiens, UniProt P05106+P06756); experiment: flow cytometry ligand-cell binding, αvβ3-K562 cells; settings: K562 cells highly expressing integrin αvβ3
T1 construct: expressed in transfected cells; host or cells: K562 myeloid leukemia cells (αvβ3-K562), provided by Dr. Yoshikazu Takada
Description: as §1
Human coronary artery endothelial cells (HCAECs) were purchased from ATCC. Human cardiac microvascular endothelial cells (HMVECs) were purchased from Lonza. THP-1 monocytes were obtained from Dr. Pamela Lein (University of California, Davis). […]
as §2, with “The samples were washed three times with DPBS containing 1% FBS and incubated with 2 μg/ml of streptavidin-phycoerythrin on ice for 30 minutes and then washed with DPBS.” left out

T1 sequence (P06756 31-889 limits assumed): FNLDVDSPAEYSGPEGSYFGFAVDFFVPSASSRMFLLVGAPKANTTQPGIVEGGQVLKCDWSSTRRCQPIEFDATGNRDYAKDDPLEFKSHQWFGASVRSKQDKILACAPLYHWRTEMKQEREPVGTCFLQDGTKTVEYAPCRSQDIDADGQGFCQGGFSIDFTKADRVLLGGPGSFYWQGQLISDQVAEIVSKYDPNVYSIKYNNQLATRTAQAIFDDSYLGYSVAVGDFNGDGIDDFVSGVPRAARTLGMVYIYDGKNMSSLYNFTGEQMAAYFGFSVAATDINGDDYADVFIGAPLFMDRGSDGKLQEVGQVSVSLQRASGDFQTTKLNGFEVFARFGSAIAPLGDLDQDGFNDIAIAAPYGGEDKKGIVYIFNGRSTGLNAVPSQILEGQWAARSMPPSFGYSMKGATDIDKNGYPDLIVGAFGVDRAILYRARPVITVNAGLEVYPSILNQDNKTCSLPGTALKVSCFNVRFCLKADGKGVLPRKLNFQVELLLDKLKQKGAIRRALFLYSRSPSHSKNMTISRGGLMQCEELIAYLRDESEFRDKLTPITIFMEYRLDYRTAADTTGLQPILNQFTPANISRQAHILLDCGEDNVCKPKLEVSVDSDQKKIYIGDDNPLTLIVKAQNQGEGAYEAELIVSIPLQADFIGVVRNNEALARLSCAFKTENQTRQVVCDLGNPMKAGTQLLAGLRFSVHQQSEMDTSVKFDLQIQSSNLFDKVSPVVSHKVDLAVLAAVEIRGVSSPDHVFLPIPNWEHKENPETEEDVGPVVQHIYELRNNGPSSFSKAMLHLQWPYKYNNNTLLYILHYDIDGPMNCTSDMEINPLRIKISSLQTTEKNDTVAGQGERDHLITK
T1 sequence (P06756 891-1048 partner limits assumed): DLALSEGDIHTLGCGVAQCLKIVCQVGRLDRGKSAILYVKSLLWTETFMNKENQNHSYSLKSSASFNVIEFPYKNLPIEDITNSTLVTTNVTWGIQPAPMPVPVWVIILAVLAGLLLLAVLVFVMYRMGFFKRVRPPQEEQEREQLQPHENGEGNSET
T1 sequence (P05106 27-788): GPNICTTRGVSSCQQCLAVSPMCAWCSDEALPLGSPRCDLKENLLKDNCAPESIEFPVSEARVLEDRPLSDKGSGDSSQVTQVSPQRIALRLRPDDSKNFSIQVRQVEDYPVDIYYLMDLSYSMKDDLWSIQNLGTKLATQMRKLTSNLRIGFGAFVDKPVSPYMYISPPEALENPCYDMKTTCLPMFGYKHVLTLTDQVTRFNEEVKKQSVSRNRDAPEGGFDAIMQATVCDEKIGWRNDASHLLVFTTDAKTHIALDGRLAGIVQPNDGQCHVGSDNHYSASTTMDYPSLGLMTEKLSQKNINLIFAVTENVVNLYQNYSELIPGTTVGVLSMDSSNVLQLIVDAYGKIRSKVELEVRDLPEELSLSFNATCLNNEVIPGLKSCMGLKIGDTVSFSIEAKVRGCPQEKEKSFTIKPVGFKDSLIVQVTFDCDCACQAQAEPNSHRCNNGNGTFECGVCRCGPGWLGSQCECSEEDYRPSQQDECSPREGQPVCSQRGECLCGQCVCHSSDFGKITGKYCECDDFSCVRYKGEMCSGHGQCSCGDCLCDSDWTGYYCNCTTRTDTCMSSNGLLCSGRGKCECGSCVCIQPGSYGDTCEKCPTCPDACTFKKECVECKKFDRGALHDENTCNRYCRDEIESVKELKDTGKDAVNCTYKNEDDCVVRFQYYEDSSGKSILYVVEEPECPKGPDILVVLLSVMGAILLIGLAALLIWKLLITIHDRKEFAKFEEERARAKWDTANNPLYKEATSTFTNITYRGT

binding affinity to αvβ3-K562 cells by flow cytometry (integrin αvβ3): higher binding affinity than GRGD
Substance: cGRGDdvc [LXW7]
binding affinity to HMVECs by flow cytometry (HMVECs): higher binding affinity with different types of EPCs/ECs than conventional GRGD peptide
attachment of HCAECs to beads displaying LXW7 (HCAECs; 10 minutes, 30 minutes or 2 hours): efficiently supported attachment of EPCs/ECs from different sources; also recorded: efficiently supported EPC/EC attachment
binding of HCAECs to ligand-displaying resin beads (HCAECs; 2 hours incubation): bound both HECFCs and HCAECs
platelet adhesion on ligand treated surface (platelets): limited platelet adhesion
